From US7514426B2, “Substituted imidazol[1,5-A][1,2,4]triazolo[1,5-D][1,4]benzodiazepine derivatives” (priority 2004, dated 2009)
Like-named read-outs stand apart in the source and are kept apart here.

Key:
Experiment in all cases: [3H]flumazenil competition binding, HEK293 cell membranes
[1] = target: T1, human GABA A receptor α1β3γ2 (Homo sapiens, UniProt P14867+P18507)
T1 construct: expressed in transfected cells; host or cells: HEK293
Method: (§1) The affinity of compounds at GABA A receptor subtypes was measured by competition for [^3H]flumazenil (85 Ci/mmol; Roche) binding to HEK293 cells expressing rat (stably transfected) or human (transiently transfected) receptors of composition α1β3γ2, α2β3γ2, α3β3γ2 and α5βγ2.
(§2) Cell pellets were suspended in Krebs-tris buffer (4.8 mM KCl, 1.2 mM CaCl2, 1.2 mM MgCl2, 120 mM NaCl, 15 mM Tris; pH 7.5; binding assay buffer), homogenized by polytron for ca. 20 sec on ice and centrifuged for 60 min at 4° C. (50000 g; Sorvall, rotor: SM24=20000 rpm). The cell pellets were resuspended in Krebs-tris buffer and homogenized by polytron for ca. 15 sec on ice. Protein was measured (Bradford method, Bio-Rad) and aliquots of 1 mL were prepared and stored at −80° C.
(§3) Radioligand binding assays were carried out in a volume of 200 μL (96-well plates) which contained 100 μL of cell membranes, [^3H]flumazenil at a concentration of 1 nM for α1, α2, α3 subunits and 0.5 nM for α5 subunits and the test compound in the range of 10^−10-3×10^−6 M. Nonspecific binding was defined by 10^−5 M diazepam and typically represented less than 5% of the total binding. Assays were incubated to equilibrium for 1 hour at 4° C. and harvested onto GF/C uni-filters (Packard) by filtration using a Packard harvester and washing with ice-cold wash buffer (50 mM Tris; pH 7.5). After drying, filter-retained radioactivity was detected by liquid scintillation counting. Ki values were calculated using Excel-Fit (Microsoft) and are the means of two determinations.

[2] = target: T2, human GABA A receptor α2β3γ2 (Homo sapiens, UniProt P18507+P47869)
T2 construct: expressed in transfected cells; host or cells: HEK293
Method: as §1, §2, §3

[3] = target: T3, human GABA A receptor α5βγ2 (Homo sapiens, UniProt P18507+P31644)
T3 construct: expressed in transfected cells; host or cells: HEK293
Method: as §1, §2, §3

[4] = target: T4, human GABA A receptor α3β3γ2 (Homo sapiens, UniProt P18507+P34903)
T4 construct: expressed in transfected cells; host or cells: HEK293
Method: as §1, §2, §3

[5] = human α1β3γ2, transiently transfected HEK293, 1 nM [3H]flumazenil, mean of two determinations, read-out: Ki[nM] hα1
[6] = human α2β3γ2, transiently transfected HEK293, 1 nM [3H]flumazenil, mean of two determinations, read-out: Ki[nM] hα2
[7] = human α5βγ2, transiently transfected HEK293, 0.5 nM [3H]flumazenil, mean of two determinations, read-out: Ki[nM] hα5
[8] = human α3β3γ2, transiently transfected HEK293, 1 nM [3H]flumazenil, mean of two determinations, read-out: Ki[nM] hα3

Work on `FCc1ncn2c1Cn1ncnc1-c1cc(Cl)ccc1-2` [Example 1, 3-Chloro-10-fluoromethyl-9H-imidazo[1,5-a][1,2,4]triazolo[1,5-d][1,4]benzodiazepine] yielded a Ki [1] of 59.1 nM, a Ki [2] of 67 nM and a Ki [3] of 9.4 nM. It also gave a Ki [4] of 40 nM.

Molecule `FC(F)c1ncn2c1Cn1ncnc1-c1ccccc1-2` [Example 16, 10-Difluoromethyl-9H-imidazo[1,5-a][1,2,4]triazolo[1,5-d][1,4]benzodiazepine] has a Ki [1] of 28.3 nM, a Ki [2] of 13.9 nM and a Ki [3] of 1.6 nM. The Ki [4] was 10.5 nM.

In the case of `FC(F)c1ncn2c1Cn1ncnc1-c1cc(N3CCOCC3)ccc1-2` [Example 17, 3-Morpholin-4-yl-10-difluoromethyl-9H-imidazo[1,5-a][1,2,4]triazolo[1,5-d][1,4]benzodiazepine], the Ki [1, 5] is reported as 1870 nM, the Ki [2, 6] is reported as > 3160 nM and the Ki [3, 7] is reported as 272 nM. For the same molecule, the Ki [4, 8] was > 3160 nM.

`FCc1ncn2c1Cn1ncnc1-c1cc(C3CC3)ccc1-2` [Example 8, 3-Cyclopropyl-10-fluoromethyl-9H-imidazo[1,5-a][1,2,4]triazolo[1,5-d][1,4]benzodiazepine] showed a Ki [1] of 272 nM, a Ki [2] of 276 nM and a Ki [3] of 14.7 nM. It also gave a Ki [4] of 270 nM.

For `CC(F)(F)c1ncn2c1Cn1ncnc1-c1cc(F)ccc1-2` [Example 14, 10-(1,1-Difluoro-ethyl)-3-fluoro-9H-imidazo[1,5-a][1,2,4]triazolo[1,5-d][1,4]benzodiazepine], the Ki [1, 5] was 163 nM, the Ki [2] was 98.8 nM and the Ki [3] was 26.6 nM. It also gave a Ki [4] of 73.5 nM.

`N#Cc1ccc2c(c1)-c1ncnn1Cc1c(C(F)F)ncn1-2` [Example 13, 3-Cyano-10-difluoromethyl-9H-imidazo[1,5-a][1,2,4]triazolo[1,5-d][1,4]benzodiazepine] was tested, and the Ki [1] was 246 nM, the Ki [2] was 246 nM and the Ki [3] was 16.5 nM. It also gave a Ki [4] of 106 nM.

In the case of `FC(F)c1ncn2c1Cn1ncnc1-c1cc(Br)ccc1-2` [Example 7, 3-Bromo-10-difluoromethyl-9H-imidazo[1,5-a][1,2,4]triazolo[1,5-d][1,4]benzodiazepine], the Ki [1, 5] is reported as 174 nM, the Ki [2, 6] is reported as 185 nM and the Ki [3, 7] is reported as 4.6 nM. The Ki [4, 8] was 79.6 nM.

With `CCC(F)(F)c1ncn2c1Cn1ncnc1-c1cc(F)ccc1-2` [Example 15, 10-(1,1-Difluoro-propyl)-3-fluoro-9H-imidazo[1,5-a][1,2,4]triazolo[1,5-d][1,4]benzodiazepine] the Ki [1] was 15 nM, the Ki [2] was 11.3 nM and the Ki [3] was 3.2 nM. It also gave a Ki [4] of 8.9 nM.

`C#Cc1ccc2c(c1)-c1ncnn1Cc1c(C(F)F)ncn1-2` [Example 12, 10-Difluoromethyl-3-ethynyl-9H-imidazo[1,5-a][1,2,4]triazolo[1,5-d][1,4]benzodiazepine] showed a Ki [1, 5] of 1460 nM, a Ki [2, 6] of 416 nM and a Ki [3] of 16.9 nM. The Ki [4, 8] was 512 nM.

`CCC(F)c1ncn2c1Cn1ncnc1-c1cc(Br)ccc1-2` (stereo not drawn) [Example 18, 3-Bromo-10-(1-fluoro-propyl)-9H-imidazo[1,5-a][1,2,4]triazolo[1,5-d][1,4]benzodiazepine] gave a Ki [1, 5] of 787 nM, a Ki [2, 6] of 764 nM and a Ki [3] of 37.5 nM. For the same molecule, the Ki [4, 8] was 650 nM.

In the case of `FCc1ncn2c1Cn1ncnc1-c1cc(Br)ccc1-2` [Example 6, 3-Bromo-10-fluoromethyl-9H-imidazo[1,5-a][1,2,4]triazolo[1,5-d][1,4]benzodiazepine], the Ki [1] is reported as 215 nM, the Ki [2] is reported as 261 nM and the Ki [3] is reported as 8.7 nM. It also gave a Ki [4] of 108 nM.

`Cc1nc2n(n1)Cc1c(CF)ncn1-c1ccc(Cl)cc1-2` [Example 20, 3-Chloro-10-fluoromethyl-6-methyl-9H-imidazo[1,5-a][1,2,4]triazolo[1,5-d][1,4]benzodiazepine] showed a Ki [1] of 50.1 nM, a Ki [2] of 181 nM and a Ki [3] of 2.5 nM. The Ki [4] was 117 nM.

With `CCC(F)(F)c1ncn2c1Cn1ncnc1-c1cc(Br)ccc1-2` [Example 19, 3-Bromo-10-(1,1-difluoro-propyl)-9H-imidazo[1,5-a][1,2,4]triazolo[1,5-d][1,4]benzodiazepine] the Ki [1] was 32.9 nM, the Ki [2, 6] was 147 nM and the Ki [3] was 6.4 nM. It also gave a Ki [4] of 77.2 nM.

In the case of `CCc1ccc2c(c1)-c1ncnn1Cc1c(C(F)F)ncn1-2` [Example 10, 10-Difluoromethyl-3-ethyl-9H-imidazo[1,5-a][1,2,4]triazolo[1,5-d][1,4]benzodiazepine], the Ki [1, 5] is reported as 272 nM, the Ki [2, 6] is reported as 624 nM and the Ki [3] is reported as 31.7 nM. For the same molecule, the Ki [4, 8] was 480 nM.

Molecule `FC(F)c1ncn2c1Cn1ncnc1-c1cc(Cl)ccc1-2` [Example 2, 3-Chloro-10-difluoromethyl-9H-imidazo[1,5-a][1,2,4]triazolo[1,5-d][1,4]benzodiazepine] has a Ki [1] of 52.9 nM, a Ki [2] of 81.3 nM and a Ki [3] of 5.6 nM. For the same molecule, the Ki [4] was 47.9 nM.

`FC(F)c1ncn2c1Cn1ncnc1-c1cc(C3CC3)ccc1-2` [Example 9, 3-Cyclopropyl-10-difluoromethyl-9H-imidazo[1,5-a][1,2,4]triazolo[1,5-d][1,4]benzodiazepine] gave a Ki [1, 5] of 216 nM, a Ki [2, 6] of 160 nM and a Ki [3] of 13.3 nM. It also gave a Ki [4, 8] of 192 nM.

Molecule `FC(F)c1ncn2c1Cn1ncnc1-c1cc(Cc3ccccc3)ccc1-2` [Example 11, 3-Benzyl-10-difluoromethyl-9H-imidazo[1,5-a][1,2,4]triazolo[1,5-d][1,4]benzodiazepine] has a Ki [1, 5] of 455 nM, a Ki [2, 6] of 904 nM and a Ki [3] of 26.4 nM. The Ki [4, 8] was 488 nM.

For `COc1ccc(-c2nc3n(n2)Cc2c(CF)ncn2-c2ccc(Cl)cc2-3)cc1OC` [Example 21, 3-Chloro-6-(3,4-dimethoxyphenyl)-10-fluoromethyl-9H-imidazo[1,5-a][1,2,4]triazolo[1,5-d][1,4]benzodiazepine], the Ki [1, 5] was > 3160 nM, the Ki [2, 6] was > 3160 nM and the Ki [3, 7] was 152 nM. The Ki [4, 8] was > 3160 nM.

In the case of `Fc1ccc2c(c1)-c1ncnn1Cc1c(C(F)F)ncn1-2` [Example 4, 3-Fluoro-10-difluoromethyl-9H-imidazo[1,5-a][1,2,4]triazolo[1,5-d][1,4]benzodiazepine], the Ki [1] is reported as 34.4 nM, the Ki [2] is reported as 14.4 nM and the Ki [3] is reported as 6.8 nM. The Ki [4] was 15.6 nM.

For `Fc1ccc2c(c1)-c1ncnn1Cc1c(C(F)(F)F)ncn1-2` [Example 5, 3-Fluoro-10-trifluoromethyl-9H-imidazo[1,5-a][1,2,4]triazolo[1,5-d][1,4]benzodiazepine], the Ki [1] was 39 nM, the Ki [2] was 23.9 nM and the Ki [3] was 7 nM. It also gave a Ki [4] of 27.7 nM.

In the case of `FCc1ncn2c1Cn1ncnc1-c1cc(F)ccc1-2` [Example 3, 3-Fluoro-10-fluoromethyl-9H-imidazo[1,5-a][1,2,4]triazolo[1,5-d][1,4]benzodiazepine], the Ki [1] is reported as 49.9 nM, the Ki [2] is reported as 25.4 nM and the Ki [3] is reported as 9.1 nM. The Ki [4] was 26.2 nM.
